From article PMC5503536, “Development of [^11C]vemurafenib employing a carbon-11 carbonylative Stille coupling and preliminary evaluation in mice bearing melanoma tumor xenografts” (Oncotarget, 2017)
Values belong to the compound of their own block, whether it stands above or below them.

Key:
[1] = system: Colo829 (BRAF^V600E) xenografts; assay: Ex vivo biodistribution, Colo829 xenograft bearing mice; type: in vivo, athymic nu/nu mice; conditions: 60 min p.i.
Experimental: (§1) To evaluate the in vivo tumor targeting potential an ex vivo biodistribution study was performed in mice bearing the aforementioned melanoma xenografts. Tumor bearing mice were injected with 20–25 MBq of [^11C]vemurafenib (corresponding to 0.36–0.45 nmol of vemurafenib) and sacrificed 60 minutes post injection. Subsequently organs of interest were excised and counted for activity.
(§2) Nude mice (Athymic nu/nu, Harlan, Horst, The Netherlands) bearing two tumors (obtained by injection of MeWo or Colo829 cells, 2*10^6 per site) of the same xenograft line on their left and right flank, received an injection of 25 MBq [^11C]vemurafenib (corresponding to 0.45 nmol of vemurafenib) via the ocular plexus. The mice were sacrificed and dissected at 60 min. post-injection. Blood, urine, skin, left tumor, right tumor, muscle, heart, colon, lung, liver, kidney and brain were collected, weighed and counted for radioactivity in a gamma counter (Wallac 1210 Compugamma, PerkinElmer, Waltham, MA, USA). Biodistribution data are expressed as percentage of injected dose per gram (%ID/g) of tissue for each organ.

[2] = system: Colo829 xenograft tumor sections; assay: Autoradiography on Colo829 xenograft sections; type: binding; conditions: co-incubation with unmodified vemurafenib 100 μM, tracer only = 100%
Experimental: (§3) To determine the binding potential of [^11C]vemurafenib to tumor tissue expressing BRAF^wt or BRAF^V600E, autoradiography studies on xenograft sections and in vitro cellular uptake studies were performed. Sections of tumor xenografts derived from the aforementioned cell lines were incubated with [^11C]vemurafenib.
(§4) Colo829 and MeWo xenograft sections (10 μm thickness) were pre-treated three times with 5 mM Tris-HCl buffer (pH 7.4) for 5 min.. Sections were dried under a gentle air flow before incubation for 30 min. with [^11C]vemurafenib and the following conditions: (A) 5 mM Tris-HCl, pH 7.4; (B) 5 mM Tris-HCl, pH 7.4 and isotopically unmodified vemurafenib at 100 μM (n = 4 for each incubation condition). Washing was performed using Tris-HCl (3×) followed by dipping in ice cold water. After drying in an air stream, tumor sections were exposed to a phosphor-imaging screen for 15 min. Data was quantified as average signal intensity per surface area and were represented relative to the tracer only (A) conditions, which was set at 100%. Error bars indicate standard deviations. Quantification of binding was performed using ImageQuantTL v8.1.0.0 (GE Healthcare, Buckinghamshire, UK) by drawing regions of interest around the full tumor sections.

[3] = Ex vivo biodistribution, statements made for both xenograft lines; type: in vivo, athymic nu/nu mice
Experimental: as §1, §2

[4] = system: MeWo (BRAF^wt) xenografts; assay: Ex vivo biodistribution, MeWo xenograft bearing mice; type: in vivo, athymic nu/nu mice; conditions: 60 min p.i.
Experimental: as §1, §2

[5] = Plasma metabolite analysis (in vivo stability); set-up: species or system athymic nu/nu mice; conditions: for Parent (%): plasma, i.v., non-tumor bearing mice
Experimental: The cartridge was washed with 5 mL of H2O to collect polar radioactive metabolites.

Colo829 cells = assay: In vitro cell uptake, Colo829; type: cell-based
Experimental: (§5) To determine binding of [^11C]vemurafenib in vitro to intact tumor cells a cell uptake study was performed by incubation of tumor cells in suspension with [^11C]vemurafenib, followed by removal of the supernatant and washing of the cells with PBS (phosphate buffered saline). […] While in vitro experiments can be of great value to predict tracer target binding, the experiments exclude many of the factors observed in vivo, for PET-tracer validation. Therefore in vivo experiments are of the utmost importance for PET-tracer validation. […]
(§6) Colo829 or MeWo cells (1*10^6) suspended in growth medium were incubated in triplicate in centrifuge tubes at 37°C with 1 MBq of [^11C]vemurafenib (corresponding to 0.02 nmol of vemurafenib) for 30 min. […] All fractions (cells, supernatant and PBS) were counted for radioactivity using a gamma counter (Wallac 1210 Compugamma, PerkinElmer, Waltham, MA, USA) and the cell bound/internalized percentage of [^11C]vemurafenib was determined as the fraction of activity in the cell pellet divided by the total activity (cells, supernatant and PBS) corrected for background (medium only) and vehicle treated conditions.

[6] = system: MeWo xenograft tumor sections; assay: Autoradiography on MeWo xenograft sections; type: binding; conditions: co-incubation with unmodified vemurafenib 100 μM, tracer only = 100%
Experimental: as §3, §4

MeWo cells = assay: In vitro cell uptake, MeWo; type: cell-based
Experimental: as §5, §6

BCRP = conditions: cited from earlier work
BRAF^V600E cells = system: BRAF^V600E cells; set-up: method as in PMID 20149136; conditions: cited from earlier work
[7] = set-up: method as in PMID 23060265; conditions: phase III, vs patients treated with dacarbazine; cited from earlier work
[8] = system: Colo829 (BRAF^V600E) cells; assay: Cell titer blue cell viability assay, Colo829; type: cell-based; conditions: Homo sapiens, COLO-829
Experimental: (§7) Having a reliable synthesis route to obtain [^11C]vemurafenib, cell lines had to be selected to evaluate the tumor targeting potential of [^11C]vemurafenib. Two melanoma cell lines were selected based on reported mutational status of BRAF: Colo829 (BRAF^V600E) and MeWo (BRAF^wt). Both cell lines were analyzed by Fluorescence Activated Cell Sorting (FACS) using a BRAF antibody (recognizing both wild-type and BRAF^V600E) and a BRAF^V600E selective antibody for assessment of target expression (Figure 2A/2B). […] Furthermore, both the cells as well as the xenografts derived from the cell lines were sequenced to confirm the expression of BRAF and the mutational status thereof. […] (V600E) and MeWo cells and xenografts were wild-type. […] So while the BRAF^V600E kinase is sensitive to vemurafenib treatment, it appears that a certain level of mutated protein expression is required for this sensitivity, as both cell lines expressed the mutation to an extent, as determined by FACS. In contrast sequencing only detected the V600E mutation in the Colo829, indicative of higher expression. […]
(§8) Vemurafenib stock solutions of 1 mM in DMSO were prepared and diluted with PBS to a concentration of 10 μM (1% DMSO). […] Finally the fluorescence was measured using a TriStar^2 LB942 plate reader (Berthold Technologies, Bad Wildbad, Germany). […]

BRAF^wt cells = system: BRAF^wt cells; set-up: method as in PMID 20149136; conditions: cited from earlier work
MeWo (BRAF^wt) cells = assay: Cell titer blue cell viability assay, MeWo; type: cell-based; conditions: 120 h incubation, CellTiter-Blue
Experimental: as §7, §8

P-gp = conditions: cited from earlier work
[9] = set-up: method as in PMID 23060265; conditions: phase I trial with 32 patients; cited from earlier work

Tumor-to-blood ratio ([1]; Colo829 (BRAF^V600E)): 0.27 ± 0.06 | Tumor-to-muscle ratio ([1]; Colo829 (BRAF^V600E)): 0.78 ± 0.18 | Tumor-to-skin ratio ([1]; Colo829 (BRAF^V600E)): 0.90 ± 0.19 | Tumor uptake ([1]; Colo829 tumors, 20–25 MBq): 0.87 ± 0.14 ID/g | blood levels ([3]; after 60 minutes, xenograft bearing mice): 2–3 %ID/g | tumor-to-tissue ratios (muscle, blood, skin), all cases ([3]; both xenograft lines, 60 min p.i.): ≤ 1 | Tumor-to-blood ratio ([4]; MeWo (BRAF^WT)): 0.29 ± 0.19 | Tumor-to-muscle ratio ([4]; MeWo (BRAF^WT)): 0.72 ± 0.21 | Tumor-to-skin ratio ([4]; MeWo (BRAF^WT)): 0.89 ± 0.28 | Tumor uptake ([4]; MeWo tumors, 20–25 MBq): 0.49 ± 0.29 %ID/g | intact tracer in plasma (stability) ([5]; 45 minutes after injection): > 95% | Parent (%) ([5]; 15 min p.i.): 97.8 ± 1.9% | Parent (%) ([5]; 45 min p.i.): 95.9 ± 4.4%
SMILES: CCCS(=O)(=O)Nc1ccc(F)c([11C](=O)c2c[nH]c3ncc(-c4ccc(Cl)cc4)cc23)c1F [[^11C]vemurafenib]
binding when compared to unblocked conditions [2]: 51.2 ± 11.2% | cell bound + internalized fraction (Colo829 cells; 30 min, 37°C, unblocked): 74.3 ± 1.5% | cell bound + internalized fraction after pretreatment with unmodified vemurafenib (Colo829 cells; blocked): 17.0 ± 2.3% | binding when compared to unblocked conditions [6]: 65.1 ± 3.1% | cell bound + internalized fraction (MeWo cells; 30 min, 37°C, unblocked): 61.6 ± 8.2% | cell bound + internalized fraction after pretreatment with unmodified vemurafenib (MeWo cells; blocked): 20.6 ± 0.4%

SMILES: CCCS(=O)(=O)Nc1ccc(F)c(C(=O)c2c[nH]c3ncc(-c4ccc(Cl)cc4)cc23)c1F [vemurafenib, Vemurafenib]
substrate for ABC-cassette efflux transporter BCRP (BCRP): substrate | effect on ERK1/2 phosphorylation (BRAF^V600E cells): abolished ERK1/2 phosphorylation | reduction in the risk of death [7]: 63% | IC50 ([8]; Colo829 (BRAF^V600E), 120 h incubation, CellTiter-Blue): 130 nM | EC50 ([8]; printed in the picture beside the fitted curve, apparently Colo829, read-out: EC50, cell viability curve (Figure 2C)): 130 nM | effect on ERK1/2 and MEK phosphorylation (BRAF^wt cells): rapid phosphorylation of ERK1/2 and MEK | IC50, cell viability (MeWo (BRAF^wt) cells): no IC50 was observed | substrate for ABC-cassette efflux transporter P-gp (P-gp): substrate | unconfirmed overall response rate [9]: 81%
